Assay results as given in patent publication US10420819B2 (Extend Biosciences, Inc., priority 2014, dated 2019).

Tests used:
[1] = tested on: blood glucose levels; assay: Blood glucose lowering pharmacodynamics in rats (Amplex Red Glucose/Glucose Oxidase Assay); assay type: in vivo; conditions: intravenous administration (FIG. 6)
[2] = rat

| Substance | blood glucose lowering ability in vivo [1] | in vivo half life [2] | duration of stably reduced blood glucose levels [1] |
| --- | --- | --- | --- |
| 20K-PEG-insulin: 20 kD PEG-NHS conjugated to human insulin, one 20 kD PEG; benchmark therapeutic (see EP2288375) | did not display significant glucose lowering ability for an extended time | improved the in vivo half life |  |
| VitD-(25)-PEG2K-insulin: 2 KDa PEG scaffold on carbon 25 of vitamin D, carrier conjugated to lysine 29 on the insulin B-chain |  | improved the in vivo half life | approximately eight |
